Assay [1] concerns SNX27_PDZ. Description: nHU-MS, SNX27_PDZ bait, total Jurkat extracts, series 2 (Exploris MS). The assay is classed as binding, human. From the text: (§1) To further establish the repeatability and robustness of the nHU-MS assay, we repeated the experiments using a different mass spectrometer and six different PDZ domain baits taken from SCRIB (PDZ_1 and PDZ_2), discs large MAGUK scaffold protein 1 (DLG1, PDZ_1, and PDZ_2), Tax1 binding protein 3 (TAX1BP3), and SNX27 (fig. S3B and table S1). […] Of the studied baits, the PDZ domain of SNX27 turned out to be the most promiscuous with 103 statistically significant interaction partners (while 180 SNX27 binding partners were identified in total on the basis of the three independent nHU-MS experiments).
(§2) For saturating streptavidin resin with biotinylated peptides or biotin, 50 μl of streptavidin resin was mixed with biotin or peptide at 40 to 60 μM concentration in 6 to 6.5 resin volume for 60 min. To saturate streptavidin resin with biotinylated proteins, 50 μl of streptavidin resin (Streptavidin Sepharose High Performance, Cytiva) was mixed with biotinylated MBP or MBP-PDZ at 40 to 50 μM concentration in 20× resin volume for 60 min. After saturation, resins were washed a single time [10 resin volume, holdup buffer: 50 mM tris (pH 7.5), 300 mM NaCl, and 1 mM TCEP, 0.22-μm filtered] and were depleted with biotin (10 resin volume, 10 min, holdup buffer supplemented with 100 μM biotin). Last, resins were washed two times (10 resin volume, holdup buffer).
(§3) For single-point nHU experiments carried out at ~10 μM bait concentration, 50 μl of saturated streptavidin resin was mixed with 200 μl of cell lysate (2 mg/ml). Titration experiments were carried out by mixing control and bait-saturated resin and keeping the total resin volume constant; e.g., ~5 μM bait concentration can be achieved by mixing 25 μl of bait-saturated streptavidin resin with 25 μl of control resin and 200 μl of cell lysate (2 mg/ml). Control and bait-saturated resins were prepared in larger amounts, and a serial dilution was prepared with these presaturated resins to achieve different resin ratios.
(§4) Unless specified elswhere, the nHU mixture was incubated at 4°C for 2 hours. After the incubation ended, the resin was separated from the supernatant by a brief centrifugation (15 s, 2000 g). Then, half of the supernatant was removed by pipetting without any delay to avoid any resin contamination; e.g., 100 μl of supernatant is collected if 200 μl of cell lysate was used as analyte. Alternatively, the supernatant can be centrifuged an additional time to clarify it further, removing any possible resin contamination. In principle, the separation of the supernatant should be as fast as possible since any delay can perturb the equilibrium. […] Alternatively, the resin can be separated from the supernatant using filter plates (e.g., various products of Millipore, Burlington, MA) or spin columns (e.g., Pierce spin cups—cellulose acetate filter from Thermo Fisher Scientific, Waltham, MA) to achieve faster separation.
(§5) The nHU samples were precipitated with trichloroacetic acid (TCA) 20% overnight at 4°C and centrifuged at 14,000 rpm for 10 min at 4°C. The protein pellets were washed twice with 1 ml of cold acetone and air-dried. The protein extracts were solubilized in 8 M urea, reduced with 5 mM TCEP for 30 min, and alkylated with 10 mM iodoacetamide for 30 min in the dark. Double digestion was performed at 37°C with 500 ng of endoproteinase Lys-C (Wako, Richmond, USA) for 4 hours, followed by fourfold dilution and an overnight digestion with 500 ng of trypsin (Promega, Charbonnieres les Bains, France). Peptide mixtures were then desalted on a C18 spin-column and dried on a speed vacuum.
(§6) Samples were analyzed using an Ultimate 3000 nano-RSLC coupled in line via a nano-electrospray ionization source, with an LTQ-Orbitrap ELITE mass spectrometer (Thermo Fisher Scientific, San Jose, CA) or with the Orbitrap Exploris 480 mass spectrometer (Thermo Fisher Scientific, Bremen, Germany) equipped with a high field asymmetric ion mobility spectrometry (FAIMS) module. […]

Assay [2] relates to TX1BP3_PDZ. Description: nHU-MS, TX1BP3_PDZ (TAX1BP3) bait, total Jurkat extracts (Exploris MS). The assay is classed as binding, human. The following applies: for BI / Difference log2 / Ratio TX1BP3/MBP: nHU-MS, total Jurkat extract; for BI: TX1BP3_PDZ bait vs MBP; for Difference log2: TX1BP3_PDZ vs MBP; for Ratio TX1BP3/MBP: TX1BP3_PDZ.
Excerpt: as §1, §2, §3, §4, §5, §6

Assay [3] has as its system SCRIB_PDZ_1. In words: nHU-MS, SCRIB_PDZ_1 bait, total Jurkat extracts (Exploris MS). The following applies: for Ratio SCRIB_1/MBP: SCRIB_PDZ_1, total Jurkat extract; for BI: SCRIB_PDZ_1 bait vs MBP; for Difference log2: SCRIB_PDZ_1 vs MBP. The assay is classed as binding, human.
Excerpt: as §1, §2, §3, §4, §5, §6

The subject of assay [4] is SCRIB_PDZ_2. In words: nHU-MS, SCRIB_PDZ_2 bait, total Jurkat extracts (Exploris MS). It is filed as binding, human. The following applies: nHU-MS; for Ratio SCRIB_2/MBP: SCRIB_PDZ_2, total Jurkat extract; for BI: SCRIB_PDZ_2 bait vs MBP; for BI / Difference log2: total Jurkat extract; for Difference log2: SCRIB_PDZ_2 vs MBP.
Excerpt: as §1, §2, §3, §4, §5, §6

In assay [5] the test system is DLG1_PDZ_1. In words: nHU-MS, DLG1_PDZ_1 bait, total Jurkat extracts (Exploris MS). It is filed as binding, human. The following applies: for Ratio DLG1_1/MBP: DLG1_PDZ_1, total Jurkat extract; for BI: DLG1_PDZ_1 bait vs MBP; for BI / pKd / Difference log2: total Jurkat extract; for pKd: DLG1_PDZ_1 bait, not filtered for significance (pKdsign N/D); for Difference log2: DLG1_PDZ_1 vs MBP.
Excerpt: as §1, §2, §3, §4, §5, §6

Assay [6] relates to DLG1_PDZ_2. Description: nHU-MS, DLG1_PDZ_2 bait, total Jurkat extracts (Exploris MS). The following applies: Jurkat extract; for Difference log2 / Ratio DLG1_2/MBP: DLG1_PDZ_2 bait vs MBP; for BI: DLG1_PDZ_2 bait. The assay is classed as binding, human.
Excerpt: as §1, §2, §3, §4, §5, §6

Assay [7] concerns the target SNX27_PDZ. In words: nHU-MS, SNX27_PDZ bait, total SH-SY5Y extracts. It is filed as binding, human. Here is the method: The empty His6-AviTag-MBP-TEV vector was used to produce biotinylated MBP for control experiments. Proteins were coexpressed with BirA biotin ligase (PET21a-BirA, Addgene, no. 20857) in Escherichia coli BL21(DE3) cells. At isopropyl-β-D-thiogalactopyranoside (IPTG) induction (1 mM IPTG at 18°C overnight), 50 μM biotin was added to the media. Harvested cells were lysed in a buffer containing 50 mM tris (pH 7.5), 150 to 300 mM NaCl, 50 μM biotin, 2 mM β-mercaptoethanol, cOmplete EDTA-free protease inhibitor cocktail (Roche, Basel, Switzerland), 1% Triton X-100, and trace amount of deoxyribonuclease, ribonuclease, and lysozyme. Lysates were frozen at −20°C before further purification steps. Lysates were sonicated and centrifuged for clarification. Expressed proteins were captured on in-house prepacked Ni-IDA (Protino Ni-IDA Resin, Macherey-Nagel, Duren, Germany) columns and were washed with at least 10 column volumes of cold wash buffer [50 mM tris (pH 7.5), 150 mM NaCl, and 2 mM β-mercaptoethanol] before elution with 250 mM imidazole. The Ni elution was collected directly on a preequilibrated amylose column (amylose high flow resin, New England Biolabs, Ipswich, MA). Amylose column was washed with 5 column volumes of cold wash buffer before fractionated elution in a buffer containing 25 mM Hepes (pH 7.5), 150 mM NaCl, 1 mM TCEP, 10% glycerol, 5 mM maltose, and cOmplete EDTA-free protease inhibitor cocktail. The concentration of proteins was determined by their ultraviolet absorption at 280 nm before aliquots were snap-frozen in liquid nitrogen and stored at −80°C.
as §2, §3
as §4, with “separation. […]” for “separation.”

The target in assay [8] is isolated PDZ domain of SNX27. The following applies: 10-mer PBM peptide vs isolated PDZ domain, holdup; cited from earlier work.
Assay [9] deals with SCRIB PDZ1. The following applies: fragmentomic, isolated PDZ domain; cited from earlier work. From the text: Supplement sciadv.ade3828_table_s1.zip/sciadv.ade3828_table_s1.xlsx, sheet "nHU-WB_SP" | column: Domain-motif fragmentomic affinities (ProfAff)
For assay [10], the target named is SCRIB PDZ3. The following applies: fragmentomic, isolated PDZ domain; cited from earlier work. From the text: Supplement sciadv.ade3828_table_s1.zip/sciadv.ade3828_table_s1.xlsx, sheet "nHU-WB_SP"

Broadly, the pKd is −log10 of the Kd, conventionally taken in molar units.

*1 amine or outer side, *2 acyl side, *3 side chain or, on linkers, in order; H or OH if unused. Where a SMILES comes first, the peptide text is derived from it. The star is where a group is joined. X1 = O=C(CCCC[C@@H]1SC[C@@H]2NC(=O)N[C@@H]21)NCCCOCCOCCOCCCN*; Suc = O=C(CCC(=O)[*:2])[*:1]

“PIGBOS1: Protein PIGBOS1 (MFRRLTFAQLLFATVLGIAGGVYIFQPVFEQYAKDQKELKEKMQLVQESEEKKS; UniProt A0A0B4J2F0 1-54, looked up)”: in [1] (Jurkat, series 2, n = 3), the BI is listed as -0.08774, the “Difference log2” value is recorded as 0.1213 and the “Ratio SNX27/MBP” value was 1.088. Further, in [2], the BI is on record as -0.09136, the “Difference log2” value came to 0.1261 and the “Ratio TX1BP3/MBP” value stood at 1.091. Moreover, the “Ratio SCRIB_1/MBP” value in [3] (nHU-MS) is 1.118. In addition, in assay [3] (nHU-MS, total Jurkat extract), the BI is -0.1177 and the “Difference log2” value is 0.1605. In [4], the “Ratio SCRIB_2/MBP” value is on record as 1.081, the BI is -0.08098 and the “Difference log2” value is given as 0.1123. In addition, in [5], the “Ratio DLG1_1/MBP” value was determined as 0.91, the BI turned out to be 0.08999, the negative-log Kd (pKd) is 3.996 and the “Difference log2” value is given as -0.136. Besides, in assay [6], the “Difference log2” value worked out at 0.04834, the “Ratio DLG1_2/MBP” value is on record as 1.034 and the BI is on record as -0.03407.
In the case of KARS1: Lysine--tRNA ligase, the pKapp_HU_not_filtered in assay [7] (apparent, Eq. 2, not filtered for significance) worked out at 4.711. The pKapp_significant_binders_HU in [7] (apparent, Eq. 2, significant binders (1 σ, P < 0.05)) was 4.711. This molecule came in with a BI_HU in assay [7] (n = 6) of 0.3389.
Consider “PPIAL4H: Peptidyl-prolyl cis-trans isomerase A-like 4H”, for which, in assay [1] (Jurkat, series 2, n = 3), the BI was found to be 0.2686, the “Difference log2” value was -0.4513 and the “Ratio SNX27/MBP” value worked out at 0.7314. Also, the negative-log Kd (pKd) in assay [1] (apparent, Jurkat, series 2, not filtered for significance, n = 3) is 4.566. In addition, in assay [2], the BI is on record as -0.05277, the “Difference log2” value amounted to 0.07419 and the “Ratio TX1BP3/MBP” value amounted to 1.053. In addition, in [3] (nHU-MS), the “Ratio SCRIB_1/MBP” value stood at 1.007. In addition, in assay [3] (nHU-MS, total Jurkat extract), the BI is reported as -0.006606 and the “Difference log2” value is listed as 0.009499. Further, in assay [4], the “Ratio SCRIB_2/MBP” value worked out at 1.14, the BI was -0.1396 and the “Difference log2” value was determined as 0.1885. Also, in assay [5], the “Ratio DLG1_1/MBP” value worked out at 0.8033, the BI was determined as 0.1967, the pKd came out at 4.3897 and the “Difference log2” value was -0.3159. Moreover, in assay [6], the “Difference log2” value is recorded as 0.01399, the “Ratio DLG1_2/MBP” value came out at 1.01 and the BI is -0.009745.
Consider WDR48, for which the “pKapp (nHU-MS)” value in assay [1] (SNX27_PDZ&Jurkat (Exploris)) was determined as 4.78; in assay [2] (TX1BP3_PDZ&Jurkat (Exploris)), 4.78; in assay [3] (SCRIB_PDZ_1&Jurkat (Exploris)), 4.749.
On to `CC[C@H](C)[C@H](NC(=O)[C@H](CCC(N)=O)NC(=O)[C@H](CO)NC(=O)[C@@H](NC(=O)[C@H](CCC(N)=O)NC(=O)[C@@H](NC(=O)[C@H](CC(N)=O)NC(=O)[C@H](CCCNC(=N)N)NC(=O)[C@@H]1CCCN1C(=O)[C@H](CC(=O)O)NC(=O)CCC(=O)NCCCOCCOCCOCCCNC(=O)CCCC[C@@H]1SC[C@@H]2NC(=O)N[C@@H]21)[C@@H](C)O)[C@@H](C)O)C(=O)O` [ABRAXAS2] ({X1-Suc}-DPRNTQTSQI-OH; C-terminus assumed), for which the “pKd (fragmentomic affinity)” value in assay [8] was 4.04. In assay [9], the pKd_PDZ1 is given as 4.02. Moreover, in assay [10], the pKd_PDZ3 is reported as 4.01.
As to “PPIAL4C: Peptidyl-prolyl cis-trans isomerase A-like 4C”, in [1] (Jurkat, series 2, n = 3), the BI is recorded as -0.1115, the “Difference log2” value came to 0.1526 and the “Ratio SNX27/MBP” value is reported as 1.112. In [2], the BI was -0.05401, the “Difference log2” value came to 0.07589 and the “Ratio TX1BP3/MBP” value came out at 1.054. Besides, the “Ratio SCRIB_1/MBP” value in assay [3] (nHU-MS) is 0.9925. Also, in assay [3] (nHU-MS, total Jurkat extract), the BI is listed as 0.007486 and the “Difference log2” value was -0.01084. This molecule gave a negative-log Kd (pKd) in [3] (nHU-MS, SCRIB_PDZ_1 bait, total Jurkat extract, not filtered for significance (pKdsign N/D)) of 2.878. Also, in assay [4], the “Ratio SCRIB_2/MBP” value came to 1.136, the BI was -0.1361 and the “Difference log2” value was found to be 0.1841. Moreover, in assay [5], the “Ratio DLG1_1/MBP” value was 0.9698, the BI is 0.03017, the pKd was found to be 3.493 and the “Difference log2” value is recorded as -0.0442. Besides, in [6], the “Difference log2” value is given as 0.05781, the “Ratio DLG1_2/MBP” value came out at 1.041 and the BI is -0.04089.

Source of the values: publication PMC9770967, “Native holdup (nHU) to measure binding affinities from cell extracts” (Science Advances, 2022).
